“And” between values parts separate entries of the source, which are not always exact repeats. Equal entries are not always repeated. Inconclusive results and toxic doses are left out. Rule as the data show it: active = T/C of 150% or more; inactive = T/C below 125%.
Test system: L1210 leukemia ip in BDF1 mice, survival T/C
Assay: NCI In Vivo Anticancer Drug Screen. Data for tumor model L1210 Leukemia (intraperitoneal) in B6D2F1 (BDF1) mice
Details: endpoint: mean survival time, higher = longer survival
Summary of the method: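 Tumor cells were implanted, animals were treated, and survival was followed. The result divides the treated measurement by the vehicle-control measurement.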

[1] = dose: 100.0 mg/kg/injection, schedule: Q01DX001 (ip), vehicle: saline
[2] = dose: 200.0 mg/kg/injection, schedule: Q01DX001 (ip), vehicle: saline
[3] = dose: 400.0 mg/kg/injection, schedule: Q01DX001 (ip), vehicle: saline
[4] = dose: 50.0 mg/kg/injection, schedule: Q01DX009 (ip), vehicle: Klucel (hydroxypropylcellulose) (HPC)
[5] = dose: 100.0 mg/kg/injection, schedule: Q01DX009 (ip), vehicle: Klucel (hydroxypropylcellulose) (HPC)
[6] = dose: 200.0 mg/kg/injection, schedule: Q01DX009 (ip), vehicle: Klucel (hydroxypropylcellulose) (HPC)
[7] = dose: 400.0 mg/kg/injection, schedule: Q01DX009 (ip), vehicle: Klucel (hydroxypropylcellulose) (HPC)
[8] = dose: 50.0 mg/kg/injection, schedule: Q01DX001 (ip), vehicle: saline
[9] = dose: 100.0 mg/kg/injection, schedule: Q04DX003 (ip), vehicle: saline with Tween-80
[10] = dose: 200.0 mg/kg/injection, schedule: Q04DX003 (ip), vehicle: saline with Tween-80
[11] = dose: 400.0 mg/kg/injection, schedule: Q04DX003 (ip), vehicle: saline with Tween-80

Measured: T/C

COc1ccc2c3c(c4cc(OC)c(OC)cc4c2c1)CN1CCC[C@H]1[C@@H]3O
inactive: dose: 0.57 mg/kg/injection, schedule: Q01DX Z (ip), vehicle: water 103 % of control | dose: 0.86 mg/kg/injection, schedule: Q01DX Z (ip), vehicle: water 106 % of control | dose: 1.3 mg/kg/injection, schedule: Q01DX Z (ip), vehicle: water 111 % of control | dose: 2.0 mg/kg/injection, schedule: Q01DX Z (ip), vehicle: water 119 % of control | dose: 9.0 mg/kg/injection, schedule: Q01DX015 (ip), vehicle: acid diluted with saline 118 % of control | dose: 12.0 mg/kg/injection, schedule: Q01DX015 (ip), vehicle: acid diluted with saline 112 % of control

CC(C)(O)C(=NCc1ccccc1)c1ccccc1
inactive: dose: 75.0 mg/kg/injection, schedule: Q04DX003 (ip), vehicle: other 97 % of control | dose: 150.0 mg/kg/injection, schedule: Q04DX003 (ip), vehicle: other 92 % of control | dose: 300.0 mg/kg/injection, schedule: Q04DX003 (ip), vehicle: other 98 % of control

S=C(Sc1ccc(Cl)cc1)Sc1ccc(Cl)cc1
inactive: [1] 93 % of control | [2] 93 % of control | [3] 90 % of control

N#CCc1ccccc1NC(=O)CCl
inactive: dose: 100.0 mg/kg/injection, schedule: Q01DX001 (ip), vehicle: saline with Tween-80 100 % of control | dose: 200.0 mg/kg/injection, schedule: Q01DX001 (ip), vehicle: saline with Tween-80 106 % of control | dose: 400.0 mg/kg/injection, schedule: Q01DX001 (ip), vehicle: saline with Tween-80 108 % of control

CCCC[P+](C)(CCCC)CCCC
inactive: dose: 8.8 mg/kg/injection, schedule: Q01DX Z (ip), vehicle: saline 98 % of control | dose: 13.3 mg/kg/injection, schedule: Q01DX Z (ip), vehicle: saline 93 % of control | dose: 20.0 mg/kg/injection, schedule: Q01DX Z (ip), vehicle: saline 86 % of control

C1CN2CCOC2O1
inactive: dose: 100.0 mg/kg/injection, schedule: Q01DX009 (ip), vehicle: saline 101 % of control | dose: 200.0 mg/kg/injection, schedule: Q01DX009 (ip), vehicle: saline 108 % of control | dose: 400.0 mg/kg/injection, schedule: Q01DX009 (ip), vehicle: saline 100 % of control

CN(C(=O)NCCCl)C1CCC(C(=O)O)CC1 (stereo unspecified)
inactive: dose: 100.0 mg/kg/injection, schedule: Q01DX001 (ip), vehicle: Klucel (hydroxypropylcellulose) (HPC) 92 % of control | dose: 200.0 mg/kg/injection, schedule: Q01DX001 (ip), vehicle: Klucel (hydroxypropylcellulose) (HPC) 88 % of control

Cc1ccc(S(=O)(=O)N(CCCc2c(C)nc(N)[nH]c2=O)c2ccccc2)cc1
inactive: [4] 102 % of control | [5] 91 % of control | [6] 95 % of control

O=C(Nc1ccc(Br)cc1)Nc1ccccc1F
inactive: [5] 98 % of control | [6] 93 % of control | [7] 98 % of control

O=C(/C=C\c1ccccc1)OCCCCOC(=O)/C=C/c1ccccc1
inactive: [8] 103 % of control | [1] 101 % of control | [2] 91 % of control | [3] 97 % of control

CCOC(=O)/C(C)=C\c1c(Br)cc(Br)c(N)c1Br
inactive: dose: 75.0 mg/kg/injection, schedule: Q01DX009 (ip), vehicle: Klucel (hydroxypropylcellulose) (HPC) 97 % of control | dose: 150.0 mg/kg/injection, schedule: Q01DX009 (ip), vehicle: Klucel (hydroxypropylcellulose) (HPC) 97 % of control | dose: 300.0 mg/kg/injection, schedule: Q01DX009 (ip), vehicle: Klucel (hydroxypropylcellulose) (HPC) 95 % of control

COc1ccc(C(=O)c2ccccc2NC(C)=O)cc1
inactive: [9] 89 % of control | [10] 98 % of control | [11] 94 % of control

CCCCCCCCCCCCCCCCSc1ccc(S(=O)(=O)N(C)C)cc1C(=O)O
inactive: [9] 98 % of control | [10] 91 % of control | [11] 89 % of control

COC(=O)C1=C(C(=O)OC)C2C=CC1C1(C)NC(=O)C21C (stereo unspecified)
inactive: dose: 100.0 mg/kg/injection, schedule: Q04DX002 (ip), vehicle: Klucel (hydroxypropylcellulose) (HPC) 94 % of control | dose: 200.0 mg/kg/injection, schedule: Q04DX002 (ip), vehicle: Klucel (hydroxypropylcellulose) (HPC) 91 % of control | dose: 400.0 mg/kg/injection, schedule: Q04DX002 (ip), vehicle: Klucel (hydroxypropylcellulose) (HPC) 97 % of control

O=C1c2ccccc2S(=O)(=O)N1CCCBr
inactive: [5] 89 % of control | [6] 89 % of control | [7] 89 % of control

CCCCCCCCCCCCCCCC(=O)OCCCCCCCCCC
inactive: [9] 100 % of control | [10] 87 % of control | [11] 95 % of control

CC(C)CN(C)N=Nc1ccccc1C(=O)NN
inactive: dose: 50.0 mg/kg/injection, schedule: Q01DX009 (ip), vehicle: saline with Tween-80 100 % of control | dose: 50.0 mg/kg/injection, schedule: Q04DX003 (ip), vehicle: saline with Tween-80 98 % of control | dose: 100.0 mg/kg/injection, schedule: Q01DX009 (ip), vehicle: saline with Tween-80 98 % of control | [9] 98 % of control | dose: 200.0 mg/kg/injection, schedule: Q01DX009 (ip), vehicle: saline with Tween-80 121 % of control | [10] 103 % of control

CC(=O)OCC1OC(n2nnc(CBr)c2CBr)C(OC(C)=O)C(OC(C)=O)C1OC(C)=O (stereo unspecified)
inactive: dose: 12.5 mg/kg/injection, schedule: Q01DX005 (ip), vehicle: other 94 % of control | dose: 25.0 mg/kg/injection, schedule: Q01DX005 (ip), vehicle: other 102 % of control | dose: 50.0 mg/kg/injection, schedule: Q01DX005 (ip), vehicle: other 97 % of control

Oc1ccc(Nc2ncnc3nc[nH]c23)cc1O
inactive: [9] 101 % of control | [10] 89 % of control | [11] 100 % of control

Nc1ccccc1C(O)c1ccccc1 (stereo unspecified)
inactive: [1] 104 % of control | [2] 106 % of control

N#CCc1ccccc1N(C(=O)CCl)C(=O)CCl
inactive: dose: 100.0 mg/kg/injection, schedule: Q01DX001 (ip), vehicle: saline sonified 98 % of control | dose: 200.0 mg/kg/injection, schedule: Q01DX001 (ip), vehicle: saline sonified 103 % of control | dose: 400.0 mg/kg/injection, schedule: Q01DX001 (ip), vehicle: saline sonified 103 % of control

O=C(OCCO)c1cc(OCCO)nc(Cl)n1
inactive: [4] 100 % of control | [5] 100 % of control | [6] 89 % of control

Cn1c(=O)c2ccccc2n(C)c1=O
inactive: dose: 100.0 mg/kg/injection, schedule: Q04DX003 (ip), vehicle: Klucel (hydroxypropylcellulose) (HPC) 96 % of control | dose: 200.0 mg/kg/injection, schedule: Q04DX003 (ip), vehicle: Klucel (hydroxypropylcellulose) (HPC) 102 % of control | dose: 400.0 mg/kg/injection, schedule: Q04DX003 (ip), vehicle: Klucel (hydroxypropylcellulose) (HPC) 100 % of control

COc1ccc(OC)c(NC(=O)SCCSC(=O)Nc2cc(OC)ccc2OC)c1
inactive: [5] 92 % of control | [6] 91 % of control | [7] 92 % of control

CN(C=O)c1ccc(C(=O)NC(CC(=O)O)CC(=O)O)cc1
inactive: [1] 111 % of control | [2] 94 % of control | [3] 103 % of control

CC[n+]1ccc(Nc2ccc(/C=C/c3ccc4cc(Nc5cc[n+](CC)cc5)ccc4[n+]3CC)cc2)cc1
inactive: dose: 2.5 mg/kg/injection, schedule: Q01DX009 (ip), vehicle: saline 112 % of control and 119 % of control and 120 % of control | dose: 12.5 mg/kg/injection, schedule: Q01DX001 (ip), vehicle: saline 100 % of control | dose: 25.0 mg/kg/injection, schedule: Q01DX001 (ip), vehicle: saline 100 % of control | [8] 112 % of control
active: dose: 5.0 mg/kg/injection, schedule: Q01DX009 (ip), vehicle: saline 150 % of control | dose: 10.0 mg/kg/injection, schedule: Q01DX009 (ip), vehicle: saline 182 % of control and 209 % of control
